In patent US20230138395A1, “PHARMACEUTICAL COMPOSITIONS OF A THERAPEUTIC POLYENE MACROLIDE AND METHODS OF THEIR USE” (priority 2020, published 2023):
In brackets after ≈: the same amount, converted by molar mass. Several values for one entry are separate records, joined by “and”; a condition that tells them apart may be missing. Equal values may be shown once.

What was measured:
[1] = system: individual Aspergillus spp. (Table 12, species not named); experiment: MFC determination, Table 12; assay type: cell-based; details: Aspergillus sp. of Table 12
[2] = system: individual Aspergillus spp. (Table 13, species not given); experiment: MIC testing (CLSI M38-A2), Table 13; assay type: cell-based; details: Aspergillus sp. of Table 13, caspofungin read as MEC
[3] = system: C. albicans SC5314; experiment: In vitro activity (MFC) against the infecting strain, Example 18; assay type: cell-based, Candida albicans; details: Candida albicans, read-out: MFC
[4] = system: C. tropicalis; experiment: MIC testing (CLSI M27-A3); assay type: cell-based
[5] = system: C. glabrata strains; experiment: MFC determination; assay type: cell-based; set-up: MFC: unit not given beside the values
[6] = system: Fusarium strains; experiment: MFC determination, Table 17; assay type: cell-based, Fusarium spp.; details: Fusarium strains (Table 17)
[7] = system: all Candida strains; experiment: MIC testing (CLSI M27-A3), summary; assay type: cell-based
[8] = system: Cr. neoformans strains; experiment: MFC determination; assay type: cell-based, Cryptococcus neoformans; details: Cr. neoformans
[9] = system: C. glabrata strains; experiment: MIC testing (CLSI M27-A3); assay type: cell-based; set-up: MIC: unit not given beside the values
[10] = system: C. parapsilosis; experiment: MIC testing (CLSI M27-A3); assay type: cell-based; set-up: MIC: unit not given beside the values
[11] = system: Paecilomyces strains; experiment: MIC testing (CLSI M38-A2); assay type: cell-based, Paecilomyces spp.; details: Paecilomyces strains (5); in µg/mL
[12] = system: all Aspergillus strains tested; experiment: MIC testing (CLSI M38-A2), summary; assay type: cell-based; details: caspofungin read as MEC
[13] = system: individual Aspergillus spp. (Table 12, species not named); experiment: MIC testing (CLSI M38-A2), Table 12; assay type: cell-based; details: Aspergillus sp. of Table 12, caspofungin read as MEC
[14] = system: C. tropicalis; experiment: MFC determination; assay type: cell-based
[15] = system: individual Aspergillus spp. (Table 14, species not named); experiment: MFC determination, Table 14; assay type: cell-based; details: Aspergillus sp. of Table 14
[16] = system: Fusarium strains; experiment: MIC testing (CLSI M38-A2), Table 17; assay type: cell-based, Fusarium spp.; details: Fusarium strains (Table 17)
[17] = C. tropicalis strains, in µg/mL

C[C@@H](c1ncncc1F)[C@](O)(Cn1cncn1)c1ccc(F)cc1F [Voriconazole, voriconazole]
MFC50 ([1]; kills 50% of strains): 4 µg/mL (≈ 11.5 µM) | MFC90 ([1]; kills 90% of strains): > 16 µg/mL | MIC Range ([2]; in µg/mL): 0.25-2 | MIC50 ([2]; inhibits 50% of strains): 0.5 µg/mL (≈ 1.43 µM) | MIC90 ([2]; inhibits 90% of strains): 1 µg/mL (≈ 2.86 µM) | MFC [3]: > 32 µg/mL | MIC Range [4, 17]: <0.06-1 | MIC50 ([4]; C. tropicalis, inhibits 50% of strains): 0.06 µg/mL (≈ 0.172 µM) | MIC90 ([4]; C. tropicalis, inhibits 90% of strains): 0.06 µg/mL (≈ 0.172 µM) | MFC Range ([5]; C. glabrata strains, in µg/mL): >32 | MFC50 ([5]; C. glabrata, kills 50% of strains): > 32 µg/mL | MFC90 ([5]; C. glabrata, kills 90% of strains): > 32 µg/mL | MFC ([5]; individual C. glabrata strain with elevated MICs to non-polyene comparators (Table 22), in µg/mL): >32 | MFC50 ([6]; kills 50% of strains): 32 µg/mL (≈ 91.6 µM) | MFC90 ([6]; kills 90% of strains): > 32 µg/mL | MIC50 ([7]; inhibits 50% of strains): 0.06 µg/mL (≈ 0.172 µM) | MIC90 ([7]; inhibits 90% of strains): 1 µg/mL (≈ 2.86 µM) | MFC50 ([8]; kills 50% of strains): > 0.5 µg/mL | MFC90 ([8]; kills 90% of strains): > 0.5 µg/mL | MIC50 ([9]; C. glabrata, inhibits 50% of strains): 0.25 µg/mL (≈ 0.716 µM) | MIC90 ([9]; C. glabrata, inhibits 90% of strains): 4 µg/mL (≈ 11.5 µM) | MIC ([9]; individual C. glabrata strain with elevated MICs to non-polyene comparators (Table 22), listed as Vor): 1 (3×) and >32 and 0.25 and 2 | MIC50 ([10]; C. parapsilosis, inhibits 50% of strains): < 0.06 µg/mL | MIC90 ([10]; C. parapsilosis, inhibits 90% of strains): 0.06 µg/mL (≈ 0.172 µM) | MIC ([10]; individual C. parapsilosis strain with elevated MICs to non-polyene comparators (Table 22), listed as Vor): 0.06 (2×) and >32 | MIC Range [11]: 0.125-2 | MIC Range ([12]; in µg/mL): 0.06-8 | MIC50 ([12]; inhibits 50% of strains): 0.5 µg/mL (≈ 1.43 µM) | MIC90 ([12]; inhibits 90% of strains): 2 µg/mL (≈ 5.73 µM) | MIC Range ([13]; in µg/mL): 0.25-4 | MIC50 ([13]; inhibits 50% of strains): 1 µg/mL (≈ 2.86 µM) | MIC90 ([13]; inhibits 90% of strains): 2 µg/mL (≈ 5.73 µM) | MFC Range [14, 17]: >32 | MFC50 ([14]; C. tropicalis, kills 50% of strains): > 32 µg/mL | MFC90 ([14]; C. tropicalis, kills 90% of strains): > 32 µg/mL | MFC50 ([15]; kills 50% of strains): > 8 µg/mL | MFC90 ([15]; kills 90% of strains): > 8 µg/mL | MIC50 ([16]; inhibits 50% of strains): 16 µg/mL (≈ 45.8 µM) | MIC90 ([16]; inhibits 90% of strains): > 32 µg/mL
